In patent publication US8486991B2, “Enantiomerically pure phosphoindoles as HIV inhibitors” (Idenix Pharmaceuticals, Inc., priority 2006, dated 2013):
Several values for one entry are separate records, joined by “and”; a condition that tells them apart may be missing. Equal values may be shown once. Read-outs that look alike come from different tables or passages of the source.

Key:
[1] = Cellular cytotoxicity, 4 days, MTS, U937; format: cell-based; conditions: human, Table 21, read-out: Average CC50 Values ± Standard Deviation, U937
Protocol: (§6) Cell viability was measured by standard MTT or MTS staining.
(§7) Following drug exposure for 4 days, cell viability was measured by MTS staining and CC50 values were determined. Drug concentrations ranged from 0.005 μM to 100 μM.

[2] = test system: HIV-1 BH10 wild-type virus; assay: microbe, parasite or virus in culture; format: cell-based
[3] = Longer term cytotoxicity, HeLa, HuH7 and HepG2 (ranges); conditions: human, HuH7 and HepG2, 9-12 day testing
Protocol: as §6
(§8) Cells were repeatedly treated with a range of drug concentrations (0.005 to 100 μM) for 9 (HeLa) or 12 days (HuH7, HepG2).

[4] = test system: HIV-1 BH10 W.T.; assay: Anti-HIV-1 BH10 W.T. activity in presence of HS or AAG; format: cell-based
[5] = test system: HIV-1 W.T. strains BH10, NL4-3 and IIIB; assay: Drug susceptibility assays, 3 W.T. strains in 5 human cell lines (ranges); format: cell-based
Excerpt: (§1) The virus and host-cell dependency of Compound I, Compound III and control drugs was further examined in drug susceptibility assays performed across 3 different subtype B wild-type HIV-1 strains and 5 different cell lines.

[6] = Cellular cytotoxicity, 4 days, six HIV-1 host cell lines (ranges); format: cell-based; conditions: human, read-out: Mean CC50 Range
Protocol: as §6, §7

[7] = Longer term cytotoxicity, 12 days, MTS, HuH7; conditions: human
Protocol: as §6, §8

[8] = test system: HIV-1 IIIB K103R/V179D/P225H triple mutant virus; assay: microbe, parasite or virus in culture; format: cell-based; conditions: for EC50: Human immunodeficiency virus 1, IIIB; for Fold Change, K103R/V179D/P225H: Table 16, IIIB
Protocol: The test articles were next profiled against a panel of HIV-1 IIIB laboratory cultivated mutants as summarized in the text below. Antiviral efficacy was determined via a CPE assay with an MTS read-out for cell viability.

[9] = test system: HIV-1 BH10 wild-type virus; assay: CPE / cell protection assay, MT-4 cells, BH10 wild-type; format: cell-based; conditions: for EC50: Human immunodeficiency virus 1, MT4
Protocol: (§2) The activity of the compounds was also assessed with the same virus and cell type using a different assay readout based on cytopathic effect (CPE).
(§3) MT-4 cells (Source: NIH Catalog #120) were seeded onto 96-well cell culture plates (1×10^4 cells per well in 50 μL).
(§4) The final DMSO concentration in the assay was 0.5% in 120 μL. Cell cultures were then incubated at 37° C./5% CO2 for 4 days. Then, Cell Titer 96 AQueous One Solution Cell Proliferation Assay (Promega) was used to measure cell viability. Briefly, the One Solution Reagent was added directly to culture wells (20 μL/well), incubated for 5 hours, and the absorbance was recorded at 492 nm using the Sunrise Tecan Spectrophotometer.
(§5) The EC50 values were determined from the percent inhibition versus concentration data using a sigmoidal non-linear regression analysis based on four parameters with Tecan Magellan software.

[10] = test system: HIV-1 IIIB in U937 cells; assay: Drug susceptibility assay, IIIB in U937 cells; format: cell-based; conditions: Human immunodeficiency virus 1, IIIB
Excerpt: as §1

[11] = test system: HIV-1 IIIB in H9 cells; assay: Drug susceptibility assay, IIIB in H9 cells; format: cell-based; conditions: Human immunodeficiency virus 1, IIIB
Excerpt: as §1

[12] = In vitro half-life in liver microsomes, rat; format: in vitro ADME; conditions: microsomes, up to one hour, longer half-lives are extrapolated, n=1
Protocol: In vitro metabolism was assessed using liver microsomes for all species. Compounds were incubated at 1 μM with liver microsomes for up to one hour. Reported half-lives greater than the total incubation time are extrapolated values. Extracts were assayed for disappearance of parent compound by LC-MS/MS detection.
Data represents one independent experiment conducted.

[13] = test system: HIV-1 NL4-3 w.t. virus; assay: microbe, parasite or virus in culture; format: cell-based
[14] = test system: HIV-1 W.T. (NL4-3) virus; assay: PBMC cell assay, W.T. (NL4-3); format: cell-based
[15] = test system: HIV-1 NL4-3 K103N virus; assay: microbe, parasite or virus in culture; format: cell-based; conditions: for EC50: Human immunodeficiency virus 1, NL43, MT4, read-out: Average EC50 Values ± Standard Deviation, K103N
[16] = Cellular cytotoxicity, 4 days, MTS, H9; format: cell-based; conditions: human, Table 21, read-out: Average CC50 Values ± Standard Deviation, H9
Protocol: as §6, §7

[17] = test system: HIV-1 BH10 in U937 cells; assay: Drug susceptibility assay, BH10 in U937 cells; format: cell-based
Excerpt: as §1

[18] = test system: HIV-1 BH10 K103N mutant virus; assay: microbe, parasite or virus in culture; format: cell-based
Protocol: as §2, §3, §4, §5

[19] = Human immunodeficiency virus 1, MT4, 96 h, read-out: mean EC50, wild-type BH10 virus in MT-4 cells, p24 ELISA, 4 day
[20] = Human immunodeficiency virus 1, MT4, read-out: Average EC50 Values ± Standard Deviation, host MT-4, virus BH10, Table 17
[21] = Table 20, vs 10% FBS only, listed as Cmpd I
[22] = MT4, read-out: Average EC50 Values ± Standard Deviation, K103R/V179D/P225H
[23] = MT4, read-out: EC50, K103R/V179D/P225H triple mutant virus
[24] = Table 8, CPE readout, read-out: Average EC50 Values ± Standard Deviation, W.T.
[25] = range over the three agents, read-out: mean EC50 values, WT BH10 virus, CPE assay
[26] = Human immunodeficiency virus 1, NL43, MT4, read-out: Average EC50 Values ± Standard Deviation, W.T.
[27] = Human immunodeficiency virus 1, NL43, MT4, read-out: Average EC50 Values ± Standard Deviation, host MT-4, virus NL4-3
[28] = Human immunodeficiency virus 1, MT4, read-out: Average EC50 Values ± Standard Deviation, K103N

SMILES: CO[P@](=O)(c1cc(C)cc(/C=C/C#N)c1)c1c(C(N)=O)[nH]c2ccc(Cl)c(F)c12 [Compound I, (2-Carbamoyl-5-chloro-4-fluoro-1H-indol-3-yl)-[3-((E)-2-cyano-vinyl)-5-methyl-phenyl]-(R)-phosphinic acid methyl ester]
- CC50 at 4 days [1]: 26500 ± 500 nM
- EC50 [2, 19]: 1 nM
- EC50 [2, 20]: 1 ± 0.4 nM
- EC50 ([2]; Human immunodeficiency virus 1, MT4, read-out: EC50, BH10, Example 16 comparative tables, unit inferred, several lines per compound): 1 ± 0.5 nM
- Fold Change, W.T. ([2]; Table 7, EC50 mutant / EC50 wild-type): 1 fold
- EC50 ([2]; read-out: EC50, BH10, Example 16 comparative tables, unit inferred, several lines per compound): 0.7 nM
- EC50 ([2]; read-out: mean EC50, wild-type BH10 virus in MT-4 cells, p24 ELISA, 4 day): 1.2 nM
- CC50 ([3]; CC50 range): 23500 to 31500 nM
- EC50 ([4]; Human immunodeficiency virus 1, read-out: Average EC50 Values ± Standard Deviation, 10% Fetal Bovine Serum): 1.1 ± 0.4 nM
- EC50 ([4]; Human immunodeficiency virus 1, read-out: Average EC50 Values ± Standard Deviation, 10% Fetal Bovine Serum + AAG): 2.9 ± 1.2 nM
- EC50 ([4]; Human immunodeficiency virus 1, read-out: Average EC50 Values ± Standard Deviation, 45% Human Serum): 14.6 ± 6.3 nM
- EC50 ([4]; Human immunodeficiency virus 1, read-out: Average EC50 Values ± Standard Deviation, 45% Human Serum + AAG): 19 ± 1.7 nM
- EC50 ([4]; Human immunodeficiency virus 1, read-out: mean EC50 values, 45% HS+AAG): 19 nM
- Fold Change, 10% Fetal Bovine Serum ([4]; Table 20): 1 fold
- Fold Change, 45% Human Serum ([4]; Table 20, vs 10% FBS only): 15.9 ± 11.1 fold
- Fold Change, 45% Human Serum + AAG ([4]; Table 20, vs 10% FBS only): 24.8 fold and 19.5 fold
- Fold Change, 10% Fetal Bovine Serum + AAG [4, 21]: 2.7 ± 0.7 fold
- Fold Change, 45% Human Serum + AAG [4, 21]: 19.5 ± 7.6 fold
- EC50 ([5]; Human immunodeficiency virus 1, read-out: EC50 range, 3 HIV-1 viral strains in 5 host human cell lines): 0.5 to 2 nM
- EC50 ([5]; Human immunodeficiency virus 1, read-out: Mean Activity Range, Table 17; over all virus/host combinations): 0.5 nM
- CC50 at 4 days [6]: 16600 to 32900 nM
- CC50 at 12 days [7]: 23500 ± 1610 nM
- EC50 [8, 22]: 10 ± 1.5 nM
- EC50 [8, 23]: 10 nM
- Fold Change, K103R/V179D/P225H [8]: 11.1±4.1 fold
- Fold Change, K103R/V179D/P225H ([8]; listed as Cmpd. I): 11.1 ± 4.1 fold
- EC50 ([9]; Cell Protection Assay tables, unit inferred, read-out: EC50, BH10): 0.28 ± 0.072 nM
- EC50 [9, 24]: 0.3 ± 0.1 nM
- EC50 [9, 25]: 0.1 to 0.7 nM
- Fold Change, W.T. ([9]; Table 9, CPE): 1 fold
- EC50 ([10]; U-937, read-out: Average EC50 Values ± Standard Deviation, host U937, virus IIIB): 0.5 ± 0.1 nM
- EC50 ([11]; H9, read-out: Average EC50 Values ± Standard Deviation, host H9, virus IIIB): 0.6 ± 0.1 nM
- half-life at 1 μM [12]: 1.67 h
- EC50 [13, 26]: 2 ± 0.1 nM
- EC50 [13, 27]: 2 ± 0.1 nM
- Fold Change, W.T. ([13]; Table 11, NL4-3): 1 fold
- EC50 ([14]; Human immunodeficiency virus 1, NL43, PBMC, read-out: Average EC50 Values ± Standard Deviation, W.T. (NL4-3)): 1.5 ± 0.7 nM
- EC50 ([14]; Human immunodeficiency virus 1, NL43, PBMC, read-out: mean EC50, NL4-3 strain in human PBMC): 1.5 nM
- EC50 [15]: 1.4 ± 0.4 nM
- Fold Change, K103N ([15]; Table 11, NL4-3): 0.7 ± 0.2 fold
- CC50 at 4 days [16]: 20000 ± 1600 nM
- EC50 ([17]; Human immunodeficiency virus 1, U-937, read-out: Average EC50 Values ± Standard Deviation, host U937, virus BH10): 0.6 ± 0.2 nM
- EC50 [18, 28]: 0.3 ± 0.1 nM
- EC50 ([18]; Human immunodeficiency virus 1, MT4, read-out: EC50, K103N): 0.26 ± 0.057 nM
- Fold Change, K103N ([18]; Table 9, CPE): 1.0 ± 0.3 fold

SMILES: O=C1Nc2ccc(Cl)cc2C(C#CC2CC2)(C(F)(F)F)O1 (centres unmarked) [EFV, 6-chloro-4-cyclopropylethynyl-4-trifluoromethyl-1,4-dihydro-2H-3,1-benzoxazin-2-one, reference compound]
- CC50 at 4 days ([1]; U-937 cells (monocytes derived from a histiocytic lymphoma)): 23200 ± 1000 nM
- EC50 [2, 19]: ~1 nM
- EC50 [2, 20]: 1.2 ± 0.8 nM
- CC50 ([3]; HuH7 and HepG2 cells (range over the three lines)): 48000 to 81000 nM
- EC50 ([4]; Human immunodeficiency virus 1, Table 19, AAG 1 mg/ml, read-out: Average EC50 Values ± Standard Deviation, 10% Fetal Bovine Serum + AAG): 5 ± 2.3 nM
- EC50 ([4]; Human immunodeficiency virus 1, Table 19, AAG 1 mg/ml, read-out: Average EC50 Values ± Standard Deviation, 45% Human Serum + AAG): 11.6 ± 7.4 nM
- EC50 ([4]; Human immunodeficiency virus 1, Table 19, read-out: Average EC50 Values ± Standard Deviation, 10% Fetal Bovine Serum): 1.6 ± 0.5 nM
- EC50 ([4]; Human immunodeficiency virus 1, Table 19, read-out: Average EC50 Values ± Standard Deviation, 45% Human Serum): 11.5 ± 3.9 nM
- EC50 ([4]; Human immunodeficiency virus 1, text b887, read-out: mean EC50 values, 45% HS+AAG): 11.6 nM
- EC50 ([5]; Human immunodeficiency virus 1, Table 17; over all virus/host combinations; read-out: Mean Activity Range): 0.8 ± 2.3 nM
- EC50 ([5]; Human immunodeficiency virus 1; read-out: EC50 range, 3 HIV-1 viral strains in 5 host human cell lines): 0.4 to 3.2 nM
- CC50 at 4 days [6]: 23200 to 51000 nM
- CC50 at 12 days ([7]; HuH7 liver cells): 75700 ± 12400 nM
- EC50 [8, 22]: > 1000 nM
- EC50 [8, 23]: > 1000 nM
- EC50 [9, 24]: 0.6 ± 0.1 nM
- EC50 [9, 25]: 0.1 to 0.7 nM
- EC50 ([10]; U-937, Table 17, read-out: Average EC50 Values ± Standard Deviation, host U937, virus IIIB): 1.5 ± 0.8 nM
- EC50 ([11]; H9, Table 17, read-out: Average EC50 Values ± Standard Deviation, host H9, virus IIIB): 1.5 ± 0.6 nM
- EC50 [13, 26]: 2.3 ± 0.2 nM
- EC50 [13, 27]: 2.3 ± 0.2 nM
- EC50 ([14]; Human immunodeficiency virus 1, NL43, Table 14, PBMC, read-out: Average EC50 Values ± Standard Deviation, W.T. (NL4-3)): 2.1 ± 0.7 nM
- EC50 [15]: 61.2 ± 33.8 nM
- CC50 at 4 days ([16]; H9 cells (lymphoblastic T cells)): 50000 ± 9000 nM
- EC50 ([17]; Human immunodeficiency virus 1, U-937, Table 17, read-out: Average EC50 Values ± Standard Deviation, host U937, virus BH10): 1.9 ± 0.8 nM
- EC50 [18, 28]: 41 ± 13 nM
